Experimental data published in US8314215B2, “Mild chemically cleavable linker system” (The Board of Trustees of the Leland Stanford Junior …, priority 2006, dated 2012).

Columns and labels:
[1] = molecular target: T1, Cathepsin Z (Rattus norvegicus, UniProt Q9R1T3); assay: Proteases targeted by SV1 after chemoselective release from immobilized streptavidin, LC-MS/MS; type: biochemical; settings: rat liver homogenate, SV1 10 μM 2 h
T1 construct: from tissue; host or cells: rat liver homogenate
Description: (§1) Rat liver homogenate (20 mg of total protein) in reaction buffer was incubated with SV1 (10 μM) for 2 h. Unreacted probe was removed by filtration over a PD10 column (Amersham Bioscience) and the eluate (in PBS buffer) was shaken with immobilized streptavidin slurry (20 μL) for 1 h. The streptavidin beads were subsequently washed with PBS buffer containing 1M NaCl, 0.1% SDS and 10% EtOH (3× each). Proteases labeled by the probe were cleaved off with Na2S2O4 using the above-described procedure. The pooled supernatant was denatured by incubating with 1 volume of 12 M urea. Next, disulfide bonds were reduced with DTT (10 mM, 60 minutes) and free cysteines were capped with iodoacetamide (40 mM, 60 minutes). Unreacted iodoacetamide was neutralized by addition of an equal amount of DTT and the concentration of urea was lowered to 2 M by addition of water. Trypsin digestion was performed overnight at 37° C. (0.1 μg of trypsin). Digestion was stopped by addition of formic acid (5% final concentration) and digested samples were desalted using a C18 Zip-Tip (Millipore) prior to LC/MS-MS analysis. Data was analyzed by the Sequest algorithm (Novatia) and evaluated by Scaffold (Proteome Software Inc.). Peptides with probability value>95% (in Scaffold) were considered positive hits.
(§2) Although the optimized release of probe-labeled proteins from streptavidin using dithionite is slightly lower in efficiency than under denaturing conditions, this method is likely to result in less background signals leading to easier identification of the target proteases. In addition the direct on-bead cleavage method using a mass spectrometry-compatible buffer allows direct in solution digestion of samples followed by MS analysis. To confirm these issues we analyzed the samples in FIG. 2 by direct solution digestion with trypsin followed by LC-MS/MS analysis of all peptide products. This analysis identified multiple peptides from each of the expected cathepsin proteases without any contamination by background proteins (Table 1). […] A more comprehensive and detailed analysis is reported in Fonović et al., Proteomic evaluation of chemically cleavable activity based probes,” Mol. and Cell Proteomics Manuscript M700-124-MCP200 (published online Jul. 5, 2007).

[2] = molecular target: T2, Cathepsin C (Rattus norvegicus, UniProt P80067); assay: as above; type: biochemical; settings: rat liver homogenate, SV1 10 μM 2 h
T2 construct: from tissue; host or cells: rat liver homogenate
T2 sequence (P80067 25-462): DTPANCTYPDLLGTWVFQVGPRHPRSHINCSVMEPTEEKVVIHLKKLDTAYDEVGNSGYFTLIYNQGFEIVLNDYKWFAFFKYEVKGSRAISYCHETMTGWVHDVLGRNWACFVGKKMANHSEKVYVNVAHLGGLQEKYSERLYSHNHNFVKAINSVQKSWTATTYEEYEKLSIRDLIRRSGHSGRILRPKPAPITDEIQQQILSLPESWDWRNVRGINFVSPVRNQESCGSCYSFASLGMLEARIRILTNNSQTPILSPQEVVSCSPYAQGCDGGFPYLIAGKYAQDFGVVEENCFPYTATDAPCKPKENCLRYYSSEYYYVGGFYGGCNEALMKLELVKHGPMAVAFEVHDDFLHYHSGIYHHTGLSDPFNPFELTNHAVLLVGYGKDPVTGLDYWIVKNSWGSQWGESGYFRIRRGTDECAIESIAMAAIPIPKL
Description: as §1, §2

[3] = molecular target: T3, Cathepsin B (Rattus norvegicus, UniProt P00787); assay: as above; type: biochemical; settings: rat liver homogenate, SV1 10 μM 2 h
T3 construct: from tissue; host or cells: rat liver homogenate
T3 sequence (P00787 80-333): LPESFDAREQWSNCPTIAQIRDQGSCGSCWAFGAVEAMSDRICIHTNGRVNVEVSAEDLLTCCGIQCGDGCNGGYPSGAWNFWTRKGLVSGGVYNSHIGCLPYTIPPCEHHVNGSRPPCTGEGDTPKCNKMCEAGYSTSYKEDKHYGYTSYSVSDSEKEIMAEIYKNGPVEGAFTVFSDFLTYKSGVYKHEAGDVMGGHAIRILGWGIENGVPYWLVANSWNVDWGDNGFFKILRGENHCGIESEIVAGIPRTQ
Description: as §1, §2

[4] = molecular target: T4, Cathepsin H (Rattus norvegicus, UniProt P00786); assay: as above; type: biochemical; settings: rat liver homogenate, SV1 10 μM 2 h
T4 construct: from tissue; host or cells: rat liver homogenate
T4 sequence (P00786 96-333): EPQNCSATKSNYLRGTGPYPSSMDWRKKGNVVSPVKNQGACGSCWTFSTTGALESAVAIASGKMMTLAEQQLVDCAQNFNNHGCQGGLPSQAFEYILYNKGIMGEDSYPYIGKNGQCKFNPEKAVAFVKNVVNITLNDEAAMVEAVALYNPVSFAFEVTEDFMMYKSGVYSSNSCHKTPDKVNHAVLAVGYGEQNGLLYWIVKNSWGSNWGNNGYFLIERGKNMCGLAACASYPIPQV
Description: as §1, §2

[5] = Cleavage of probe by incubation with Na2S2O4, LC-MS analysis; type: physicochemical; settings: 100 mM Na2S2O4, after 30 minutes
Description: We initially tested the cleavage of SV1 (shown in FIG. 3) by incubation with 100 mM Na2S2O4. After 30 minutes full cleavage of SV1 into the two aniline fragments 3 and 4 (FIG. 3) was observed using LC-MS analysis.

T1 sequence (Q9R1T3 64-306): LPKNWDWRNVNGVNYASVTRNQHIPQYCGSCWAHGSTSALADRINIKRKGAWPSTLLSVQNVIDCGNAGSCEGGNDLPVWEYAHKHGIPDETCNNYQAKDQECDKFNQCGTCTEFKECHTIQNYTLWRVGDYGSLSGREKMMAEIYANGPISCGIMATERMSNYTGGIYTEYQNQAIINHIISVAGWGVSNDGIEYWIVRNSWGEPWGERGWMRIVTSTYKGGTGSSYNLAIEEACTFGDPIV

CCOC(=O)[C@H]1O[C@@H]1C(=O)N[C@@H](CC(C)C)C(=O)N[C@@H](Cc1ccc(O)cc1)C(=O)NCCc1ccc(O)c(N=Nc2ccc(C(=O)N[C@@H](CCCCNC(=O)CCCC[C@@H]3SC[C@@H]4NC(=O)N[C@@H]43)C(N)=O)cc2)c1 [SV1]
Number of Identified peptides [1]: 4
Sequence coverage [1]: 32%
Number of Identified peptides [2]: 3
Sequence coverage [2]: 16%
Number of Identified peptides [3]: 2
Sequence coverage [3]: 8%
Number of Identified peptides [4]: 5
Sequence coverage [4]: 29%
cleavage into the two aniline fragments 3 and 4 [5]: full cleavage
